Results from patent US20250176598A1, “AMIDE COMPOUNDS AND THEIR USE AS FLAVOR MODIFIERS” (Firmenich Incorporated, priority 2022, published 2025).

Biological target: T1, T1R umami taste receptor (Homo sapiens, UniProt Q7RTX0+Q7RTX1)
T1 sequence (Q7RTX1 21-841): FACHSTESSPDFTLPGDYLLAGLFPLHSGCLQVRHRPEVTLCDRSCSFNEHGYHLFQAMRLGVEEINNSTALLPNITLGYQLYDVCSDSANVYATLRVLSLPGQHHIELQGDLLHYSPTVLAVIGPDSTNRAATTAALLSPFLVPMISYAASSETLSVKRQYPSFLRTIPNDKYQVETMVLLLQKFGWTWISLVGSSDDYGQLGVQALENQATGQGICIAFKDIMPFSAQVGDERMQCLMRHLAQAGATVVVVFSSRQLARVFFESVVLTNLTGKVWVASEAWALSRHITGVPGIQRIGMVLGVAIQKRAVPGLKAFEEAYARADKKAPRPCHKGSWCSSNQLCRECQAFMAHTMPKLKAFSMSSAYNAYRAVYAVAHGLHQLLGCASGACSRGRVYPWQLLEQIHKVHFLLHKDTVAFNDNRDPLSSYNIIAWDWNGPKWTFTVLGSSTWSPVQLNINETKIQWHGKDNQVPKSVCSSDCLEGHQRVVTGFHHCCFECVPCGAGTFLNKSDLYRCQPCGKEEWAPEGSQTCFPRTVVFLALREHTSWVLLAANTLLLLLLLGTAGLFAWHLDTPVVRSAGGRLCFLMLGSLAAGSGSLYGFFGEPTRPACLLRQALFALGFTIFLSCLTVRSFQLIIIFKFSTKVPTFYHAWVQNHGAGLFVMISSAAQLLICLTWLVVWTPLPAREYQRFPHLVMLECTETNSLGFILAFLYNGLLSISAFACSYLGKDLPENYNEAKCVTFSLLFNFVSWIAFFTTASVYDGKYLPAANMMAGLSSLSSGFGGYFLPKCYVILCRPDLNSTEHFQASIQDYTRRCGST
T1 sequence (Q7RTX0 21-852): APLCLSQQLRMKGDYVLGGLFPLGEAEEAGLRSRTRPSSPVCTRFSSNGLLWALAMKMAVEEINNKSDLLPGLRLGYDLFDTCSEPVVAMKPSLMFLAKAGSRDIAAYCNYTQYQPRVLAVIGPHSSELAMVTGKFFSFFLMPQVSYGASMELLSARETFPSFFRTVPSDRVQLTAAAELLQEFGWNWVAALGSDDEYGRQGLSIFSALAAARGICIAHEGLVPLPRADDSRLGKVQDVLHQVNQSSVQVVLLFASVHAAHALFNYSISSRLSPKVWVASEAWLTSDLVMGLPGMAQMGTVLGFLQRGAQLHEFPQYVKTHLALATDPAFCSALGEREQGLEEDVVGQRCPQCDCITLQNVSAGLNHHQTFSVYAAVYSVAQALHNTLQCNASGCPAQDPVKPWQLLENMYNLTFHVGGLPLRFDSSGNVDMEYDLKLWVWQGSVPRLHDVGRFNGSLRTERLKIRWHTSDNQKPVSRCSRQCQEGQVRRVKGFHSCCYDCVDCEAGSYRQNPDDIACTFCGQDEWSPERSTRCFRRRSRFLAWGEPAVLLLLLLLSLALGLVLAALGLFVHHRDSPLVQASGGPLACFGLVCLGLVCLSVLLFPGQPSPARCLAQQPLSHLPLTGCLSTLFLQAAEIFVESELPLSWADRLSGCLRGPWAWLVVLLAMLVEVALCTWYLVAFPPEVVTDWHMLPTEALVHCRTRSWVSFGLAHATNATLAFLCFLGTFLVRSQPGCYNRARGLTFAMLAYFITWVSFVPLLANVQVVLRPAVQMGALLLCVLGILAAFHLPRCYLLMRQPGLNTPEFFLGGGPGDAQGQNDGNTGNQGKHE
Assay: in vitro cell-based assay, cells expressing the T1R umami taste receptor; enhancement of MSG
Settings: for EC50: cells that express the T1R umami taste receptor, dose-binding curves; for MSG Enh. Ratio: MSG enhancement ratio at a particular concentration (concentration not given)
Method: Each of Compounds 101-145 was synthesized according to one of the general procedures set forth above in Examples 1 and Example 2. Thereafter, the compounds were tested in an in vitro cell-based assay having cells that express the T1R umami taste receptor. Dose-binding curves were recorded and the EC50 was determined for enhancement of MSG binding. Table 2 sets forth the calculated EC50 values for certain tested compounds as well as the MSG enhancement ratio at a particular concentration.

Row | EC50 | MSG Enh. Ratio | SMILES
1 | > 50 µM |  | COc1ccc(/C=C/C(=O)N[C@H](C(=O)O)C(C)C)cc1 [Compound 136, (E)-(3-(4-methoxyphenyl)acryloyl)-L-valine]
2 | 7.74 µM | 4.7 | COc1ccc(/C=C/C(=O)N[C@H](CC(C)C)C(=O)O)cc1 [Compound 137, (E)-(3-(4-methoxyphenyl)acryloyl)-D-leucine]
3 | > 50 µM | 1.0 | COc1ccc(/C=C/C(=O)N[C@@H](CC(C)C)C(=O)O)cc1 [Compound 138, (E)-(3-(4-methoxyphenyl)acryloyl)-L-leucine]
4 | > 50 µM | 1.5 | CC[C@H](C)[C@H](NC(=O)/C=C/c1ccc(OC)cc1)C(=O)O [Compound 139, ((E)-3-(4-methoxyphenyl)acryloyl)-L-isoleucine]
5 | > 50 µM | 1.8 | COc1ccc(/C=C/C(=O)N[C@@H](Cc2ccc(OC)cc2)C(=O)O)cc1 [Compound 140, (S,E)-3-(4-methoxyphenyl)-2-(3-(4-methoxyphenyl)acrylamido)propanoic acid]
6 | > 50 µM | 1.6 | COc1ccc(C[C@H](NC(=O)/C=C/c2ccc(OC)c(OC)c2)C(=O)O)cc1 [Compound 141, (S,E)-2-(3-(3,4-dimethoxyphenyl)acrylamido)-3-(4-methoxyphenyl)propanoic acid]
7 | > 50 µM | 2.2 | COc1ccc(/C=C/C(=O)N[C@@H](CCC(=O)O)C(=O)O)cc1 [Compound 142, (E)-(3-(4-methoxyphenyl)acryloyl)-L-glutamic acid]
8 | > 50 µM | 1.0 | COc1ccc(/C=C/C(=O)N[C@@H](CCC(=O)O)C(=O)O)cc1O [Compound 143, (E)-(3-(3-hydroxy-4-methoxyphenyl)acryloyl)-L-glutamic acid]
9 | > 50 µM |  | COc1ccc(/C=C/C(=O)N[C@H](CCC(=O)O)C(=O)O)cc1O [Compound 144, (E)-(3-(3-hydroxy-4-methoxyphenyl)acryloyl)-D-glutamic acid]
10 | > 50 µM | 1.0 | CC(C)/C=C/C(=O)N[C@@H](CCC(=O)O)C(=O)O [Compound 145, (E)-(4-methylpent-2-enoyl)-L-glutamic acid]
